Measurements: PMC9887192, “Lethal activity of BRD4 PROTAC degrader QCA570 against bladder cancer cells” (Frontiers in Chemistry, 2023)

Biological target: BRD4 (Homo sapiens, UniProt O60885)
Test: PROTAC degradation in bladder cancer cells by Western blot; blocked by JQ1, MG132 and MLN4924
Type: cell-based

## Cc1nnc2n1-c1sc(C#Cc3cnn(CCCC#Cc4cccc5c4CN(C4CCC(=O)NC4=O)C5=O)c3)c(Cc3ccccc3)c1COC2 (stereo not shown) [QCA570]
  DC50: ~1 nM
